Data published in the supplement of paper PMC4862054.

Key:
Assay in all cases: normalised response (% of control), CellTox Green; higher = less cell death (100 = DMSO, 0 = benzethonium chloride kill control)
Details in all cases: incubation time: 72 h
MDA-MB-453 = system: MDA-MB-453
Outline: (§1)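 Compound was dispensed into 384-well plates at 5 concentrations in 10-fold steps spanning a 10,000-fold range specific to that compound. Breast cancer cell lines were added as 20 µl suspension and left for 72 h before CellTox Green fluorescence (485/520 nm) and then CellTiter-Glo luminescence, read after 10 min at room temperature. Each reported value is the normalised signal at one concentration, with 0.1 % DMSO set at 100 and a positive kill control at 0 on each plate.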

DU-4475 = system: DU-4475
Outline: as §1

Hs578T = system: Hs578T
Outline: as §1

HDQ-P1 = system: HDQ-P1
Outline: as §1

HCC1937 = system: HCC1937
Outline: as §1

MDA-MB-231 = system: MDA-MB-231
Outline: as §1

COc1ccc(-c2cc3c(C)nc(N)nc3n([C@H]3CC[C@H](OCCO)CC3)c2=O)cn1 (1000 nM)
normalised response (MDA-MB-453): 84.2%
normalised response (DU-4475): 86.2%
normalised response (Hs578T): 101%
normalised response (HDQ-P1): 84.7%
normalised response (HCC1937): -51.2%
normalised response (MDA-MB-231): 76.8%

COc1ccc(-c2cc3c(C)nc(N)nc3n([C@H]3CC[C@H](OCCO)CC3)c2=O)cn1 (10000 nM)
normalised response (MDA-MB-453): 61.1%
normalised response (DU-4475): 67.2%
normalised response (Hs578T): 28.7%
normalised response (HDQ-P1): -2.73%
normalised response (HCC1937): 41.4%
normalised response (MDA-MB-231): 4.33%

O=C(Nc1c[nH]nc1-c1nc2ccc(CN3CCOCC3)cc2[nH]1)NC1CC1 [AT9283] (1000 nM)
normalised response (MDA-MB-453): 101%
normalised response (DU-4475): 106%
normalised response (Hs578T): 83.2%
normalised response (HDQ-P1): 88.2%
normalised response (HCC1937): 116%
normalised response (MDA-MB-231): 40.6%

COc1cc(CCc2cc(NC(=O)c3ccc(N4CC(C)NC(C)C4)cc3)n[nH]2)cc(OC)c1 (stereo unspecified) [AZD4547] (100 nM)
normalised response (MDA-MB-453): 100%
normalised response (DU-4475): 97.8%
normalised response (Hs578T): 94%
normalised response (HDQ-P1): 89.4%
normalised response (HCC1937): 113%
normalised response (MDA-MB-231): 90.1%

COc1cc(CCc2cc(NC(=O)c3ccc(N4CC(C)NC(C)C4)cc3)n[nH]2)cc(OC)c1 (stereo unspecified) [AZD4547] (1000 nM)
normalised response (MDA-MB-453): 103%
normalised response (DU-4475): 98.5%
normalised response (Hs578T): 115%
normalised response (HCC1937): 88.6%
normalised response (MDA-MB-231): 110%

CCC/C=C/C=C/C(=O)O[C@H]1/C(=C/C(=O)OC)C[C@H]2C[C@H]([C@@H](C)O)OC(=O)C[C@H](O)C[C@@H]3C[C@H](OC(C)=O)C(C)(C)[C@](O)(C[C@@H]4C/C(=C/C(=O)OC)C[C@H](/C=C/C(C)(C)[C@]1(O)O2)O4)O3 [Bryostatin 1] (10 nM)
normalised response (MDA-MB-453): 99.9%
normalised response (DU-4475): 106%
normalised response (Hs578T): 109%
normalised response (HCC1937): 83.2%
normalised response (MDA-MB-231): 117%

CCC/C=C/C=C/C(=O)O[C@H]1/C(=C/C(=O)OC)C[C@H]2C[C@H]([C@@H](C)O)OC(=O)C[C@H](O)C[C@@H]3C[C@H](OC(C)=O)C(C)(C)[C@](O)(C[C@@H]4C/C(=C/C(=O)OC)C[C@H](/C=C/C(C)(C)[C@]1(O)O2)O4)O3 [Bryostatin 1] (100 nM)
normalised response (MDA-MB-453): 104%
normalised response (DU-4475): 112%
normalised response (Hs578T): 114%
normalised response (HDQ-P1): 73.7%
normalised response (MDA-MB-231): 120%

CO[C@@H](C(=O)N1Cc2[nH]nc(NC(=O)c3ccc(N4CCN(C)CC4)cc3)c2C1)c1ccccc1 [Danusertib] (1000 nM)
normalised response (MDA-MB-453): 84.9%
normalised response (DU-4475): 97.3%
normalised response (HDQ-P1): 105%
normalised response (HCC1937): 129%
normalised response (MDA-MB-231): 101%

CO[C@@H](C(=O)N1Cc2[nH]nc(NC(=O)c3ccc(N4CCN(C)CC4)cc3)c2C1)c1ccccc1 [Danusertib] (10000 nM)
normalised response (MDA-MB-453): 112%
normalised response (DU-4475): 102%
normalised response (Hs578T): -40.1%
normalised response (HDQ-P1): 48%
normalised response (MDA-MB-231): 93.2%

Cc1nc(Nc2ncc(C(=O)Nc3c(C)cccc3Cl)s2)cc(N2CCN(CCO)CC2)n1 [Dasatinib] (100 nM)
normalised response (MDA-MB-453): 97.2%
normalised response (DU-4475): 102%
normalised response (Hs578T): 90.8%
normalised response (HDQ-P1): 90.2%
normalised response (HCC1937): 5.95%
normalised response (MDA-MB-231): 84.3%

Cc1nc(Nc2ncc(C(=O)Nc3c(C)cccc3Cl)s2)cc(N2CCN(CCO)CC2)n1 [Dasatinib] (1000 nM)
normalised response (MDA-MB-453): 92.5%
normalised response (DU-4475): 96.6%
normalised response (Hs578T): 5.15%
normalised response (HDQ-P1): 81.3%
normalised response (HCC1937): 91.4%
normalised response (MDA-MB-231): 35%

Cc1c(CN2CCN(C(=O)[C@H](C)O)CC2)sc2c(N3CCOCC3)nc(-c3cnc(N)nc3)nc12 [GDC-0980] (1000 nM)
normalised response (MDA-MB-453): 104%
normalised response (DU-4475): 98.7%
normalised response (Hs578T): 107%
normalised response (HDQ-P1): 103%
normalised response (HCC1937): 107%
normalised response (MDA-MB-231): 98.8%

Cc1c(CN2CCN(C(=O)[C@H](C)O)CC2)sc2c(N3CCOCC3)nc(-c3cnc(N)nc3)nc12 [GDC-0980] (10000 nM)
normalised response (MDA-MB-453): 86.7%
normalised response (DU-4475): 85.5%
normalised response (Hs578T): 98.8%
normalised response (HDQ-P1): 41.6%
normalised response (HCC1937): 101%
normalised response (MDA-MB-231): 98.1%

Nc1cccc2c1CN(C1CCC(=O)NC1=O)C2=O (stereo unspecified) [Lenalidomide] (1000 nM)
normalised response (MDA-MB-453): 103%
normalised response (DU-4475): 103%
normalised response (Hs578T): 94.5%
normalised response (HDQ-P1): 104%
normalised response (HCC1937): 113%
normalised response (MDA-MB-231): 109%

Nc1cccc2c1CN(C1CCC(=O)NC1=O)C2=O (stereo unspecified) [Lenalidomide] (10000 nM)
normalised response (MDA-MB-453): 99.8%
normalised response (DU-4475): 100%
normalised response (Hs578T): 127%
normalised response (HDQ-P1): 98.5%
normalised response (HCC1937): 97.7%
normalised response (MDA-MB-231): 108%

C[C@]12O[C@H](C[C@]1(O)CO)n1c3ccccc3c3c4c(c5c6ccccc6n2c5c31)CNC4=O [Lestaurtinib] (100 nM)
normalised response (MDA-MB-453): 102%
normalised response (DU-4475): 91.5%
normalised response (Hs578T): 96.2%
normalised response (HDQ-P1): 105%
normalised response (HCC1937): 81.8%

C[C@]12O[C@H](C[C@]1(O)CO)n1c3ccccc3c3c4c(c5c6ccccc6n2c5c31)CNC4=O [Lestaurtinib] (1000 nM)
normalised response (MDA-MB-453): 104%
normalised response (DU-4475): 71.7%
normalised response (Hs578T): 25.3%
normalised response (HDQ-P1): 76.4%
normalised response (HCC1937): 89.6%
normalised response (MDA-MB-231): 89.2%
